Measurements: patent publication US9156796B2, “Benzoimidazole-carboxylic acid amide derivatives as APJ receptor modulators” (SANOFI, priority 2013, dated 2015)

molecular target: T1, human apelin receptor (Homo sapiens, UniProt P35414); test: Determination of agonism on the human apelin receptor by a calcium fluorescence assay (FLIPR); format: cell-based; conditions: HEK293 cells stably transfected with human apelin receptor and Giaq protein, Fluo-4 calcium fluorescence, read-out: EC50 (APJ agonism)
T1 construct: expressed in transfected cells
T1 sequence (P35414 1-380): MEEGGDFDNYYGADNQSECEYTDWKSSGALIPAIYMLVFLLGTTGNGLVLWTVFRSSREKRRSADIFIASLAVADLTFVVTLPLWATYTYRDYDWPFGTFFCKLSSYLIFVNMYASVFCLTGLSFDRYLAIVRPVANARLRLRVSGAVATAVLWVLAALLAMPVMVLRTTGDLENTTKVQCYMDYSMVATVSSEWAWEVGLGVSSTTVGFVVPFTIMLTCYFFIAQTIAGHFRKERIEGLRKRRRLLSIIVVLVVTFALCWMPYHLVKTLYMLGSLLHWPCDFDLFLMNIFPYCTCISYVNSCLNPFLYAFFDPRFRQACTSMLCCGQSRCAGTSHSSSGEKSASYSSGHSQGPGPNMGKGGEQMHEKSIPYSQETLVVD
Procedure, shortened: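 Agonist EC50s come from peak intracellular calcium transients recorded by FLIPR Tetra, scaled to the 1 μM apelin-13 maximum per plate. Test system: HEK293 stably transfected with human apelin receptor plus Giaq, Fluo-4-loaded (4 μM, 1 h, 37 °C, pH 7.4 buffer with probenecid); ≥7 concentrations, triplicates.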

Structure (SMILES)	EC50
CCC(CC)n1c(Cc2cccs2)nc2cc(C(=O)N[C@@H](Cc3ccccc3)C(=O)O)ccc21 [Example 124, (S)-2-{[1-(1-Ethyl-propyl)-2-thiophen-2-ylmethyl-1H-benzoimidazole-5-carbonyl]-amino}-3-phenyl-propionic acid]	9350 nM
CCC(CC)n1c(Cc2cccs2)nc2cc(C(=O)N[C@@H](CC3CCCCC3)C(=O)O)ccc21 [Example 125, (S)-3-Cyclohexyl-2-{[1-(1-ethyl-propyl)-2-thiophen-2-ylmethyl-1H-benzoimidazole-5-carbonyl]-amino}-propionic acid]	78 nM
CCC(CC)n1c(Cc2cccs2)nc2cc(C(=O)NC(CC(C)(C)C)C(=O)O)ccc21 (stereo not shown) [Example 126, 2-{[1-(1-Ethyl-propyl)-2-thiophen-2-ylmethyl-1H-benzoimidazole-5-carbonyl]-amino}-4,4-dimethyl-pentanoic acid]	3930 nM
CC(C)C[C@H](NC(=O)c1ccc2c(c1)nc(Cc1cccs1)n2CC(C)C)C(=O)O [Example 127, (S)-2-[(1-Isobutyl-2-thiophen-2-ylmethyl-1H-benzoimidazole-5-carbonyl)-amino]-4-methyl-pentanoic acid]	15000 nM
CC(C)C[C@H](NC(=O)c1ccc2c(c1)nc(CC1CCCC1)n2CC(C)C)C(=O)O [Example 128, (S)-2-[(2-Cyclopentylmethyl-1-isobutyl-1H-benzoimidazole-5-carbonyl)-amino]-4-methyl-pentanoic acid]	10000 nM
CCC(CC)n1c(CC2CCCC2)nc2cc(C(=O)N[C@@H](CC(C)C)C(=O)O)ccc21 [Example 129, (S)-2-{[2-Cyclopentylmethyl-1-(1-ethyl-propyl)-1H-benzoimidazole-5-carbonyl]-amino}-4-methyl-pentanoic acid]	2680 nM

Second part, the molecule after the results:

EC50	Structure (SMILES)
293 nM	CCC(CC)n1c(Cc2cccs2)nc2cc(C(=O)N[C@@H](CCC(C)C)C(=O)O)ccc21 [Example 130, (S)-2-{[1-(1-Ethyl-propyl)-2-thiophen-2-ylmethyl-1H-benzoimidazole-5-carbonyl]-amino}-5-methyl-hexanoic acid]
185 nM	CC(C)C[C@H](NC(=O)c1ccc2c(c1)nc(Cc1ccoc1)n2C1CCCCC1C)C(=O)O (stereo partly drawn) [Example 131, (S)-2-{[2-Furan-3-ylmethyl-1-(2-methyl-cyclohexyl)-1H-benzoimidazole-5-carbonyl]-amino}-4-methyl-pentanoic acid]
700 nM	CC(C)C[C@H](NC(=O)c1ccc2c(c1)nc(Cc1cccs1)n2-c1ccccc1)C(=O)O [Example 132, (S)-4-Methyl-2-[(1-phenyl-2-thiophen-2-ylmethyl-1H-benzoimidazole-5-carbonyl)-amino]-pentanoic acid]
2350 nM	CCC(C)Cn1c(CC2CCCCC2)nc2cc(C(=O)N[C@@H](CC3CCCCC3)C(=O)O)ccc21 (stereo partly drawn) [Example 133, (S)-3-Cyclohexyl-2-{[2-cyclohexylmethyl-1-(2-methyl-butyl)-1H-benzoimidazole-5-carbonyl]-amino}-propionic acid]
7150 nM	CC(C)Cn1c(CC2CCCCC2)nc2cc(C(=O)N[C@@H](CC3CCCCC3)C(=O)O)ccc21 [Example 134, (S)-3-Cyclohexyl-2-[(2-cyclohexylmethyl-1-isobutyl-1H-benzoimidazole-5-carbonyl)-amino]-propionic acid]
3800 nM	CCC(C)Cn1c(CC2CCCCC2)nc2cc(C(=O)N[C@@H](CC(C)C)C(=O)O)ccc21 (stereo partly drawn) [Example 135, (S)-2-{[2-Cyclohexylmethyl-1-(2-methyl-butyl)-1H-benzoimidazole-5-carbonyl]-amino}-4-methyl-pentanoic acid]
2700 nM	CC(C)C[C@H](NC(=O)c1ccc2c(c1)nc(Cc1ccsc1)n2-c1ccccc1)C(=O)O [Example 136, (S)-4-Methyl-2-[(1-phenyl-2-thiophen-3-ylmethyl-1H-benzoimidazole-5-carbonyl)-amino]-pentanoic acid]
